# Literature values in patent US11419835B2, “Method of treatment and prevention of bacterial vaginosis” (EVOFEM, INC., priority 2016, dated 2022).
# System: HIV
# Conditions: compared with D or racemic lactic acid
structure (smiles),measurement,value
"C[C@H](O)C(=O)O [L-lactic acid, L-(+)-lactic acid]",potency in inactivating HIV,more potent in inactivating HIV than D or racemic lactic acid
